{
  "source": "paper PMC9065145",
  "about": "“Open label safety and efficacy pilot to study mitigation of equine recurrent uveitis through topical suppressor of cytokine signaling-1 mimetic peptide” (Scientific Reports, 2022)",
  "key": {"[1]": {"test_system": "pJAK2 (1001–1013) peptide", "assay": "Competitive inhibition binding assay", "conditions": "5 µg/mL biotinylated pJAK2 pre-incubated with increasing soluble SOCS1-KIR (8-500, printed mg/mL), RT, then direct binding assay; semi-logarithmic fit R2 ≥ 0.95; n = 3", "protocol": "Direct binding assays were performed at room temperature (RT) for 2 h as previously described[34] with modifications. Briefly, Polystyrene 96-well flat bottom plates were seeded with SOCS1 KIR peptide (500 µg/mL) in 0.05 M carbonate-bicarbonate buffer (pH 9.6). The plates were washed 4 times in the wash buffer (Phosphate-buffered saline in 0.05% Tween-20) followed by incubation for 2 h in blocking buffer (3% bovine serum albumin (BSA), 3 mM ethylenediaminetetraacetic acid (EDTA), 0.1% gelatin, and 0.05% Tween 20) and then washed 4 times. Serial dilutions of biotinylated phosphorylated JAK2 (pJAK2) in assay diluent (2% BSA, 3 mM EDTA, 0.01% gelatin, and 0.05% Tween 20) (10, 5, 2.5, 1.25, 0.625, 0.312 µg/mL) were then added to the coated plates for 90 min followed by washing 7 times. Streptavidin- horseradish peroxidase (1:4000, HRP) [BD Biosciences, Cat# 554066] was then added for 30 min followed by 12 wash cycles. Finally, 100 µL 3,3′,5,5′-Tetramethylbenzidine (TMB) substrate [BD Biosciences, Cat# 555214] was added for 30 min followed by assessment with spectrophotometer readings at an absorbance of 450 nm. For competitive Inhibition assays, 5 µg/mL biotinylated pJAK2 was pre-incubated with varying concentrations of SOCS1-KIR ([…]) for 1 h at RT prior and then, a direct binding assay was performed. […]"}, "[2]": {"test_system": "equine recurrent uveitis (ERU)", "format": "in vivo, horse", "conditions": "for Response to mimetic: symbols not defined", "text": "A priori ERU patients with confirmed ERU but lacking severe ophthalmic decrements (evidence of chronicity), were optimal for enrollment in clinical trial. However, given the unmet need presented by ERU, horses with uncontrolled ERU-mediated inflammation were also enrolled (even with ophthalmic decrement), given that peptide efficacy could be assessed. Reduction in hyperemia was established as the primary endpoint evaluation of peptide efficacy. A priori power analysis established that nine patients would be required to assess a significant decrease in hyperemia, based on historical data from the institution. Ten total patients were enrolled through direct contact with Dr. Plummer. […] No exclusions were made, with all participants noted in Table 1. All procedures were conducted on equine patients subsequent to owner consent.\nTen horses (7 geldings and 3 mares) diagnosed with ERU were enrolled in a short-term, open-label trial to assess the efficacy of topical SOCS1 KIR. The administration of the SOCS1 KIR peptide was in the context of a therapeutic treatment. The horses of varied breed (appaloosa, quarter horse, miniature, and paint- aged 5–21) enrolled in the trial, presenting with acute or insidious disease, were admitted into the University of Florida Veterinary Hospital for 4–7 days to begin treatments with topical SOCS1 KIR. The horses admitted to the clinic were closely evaluated for efficacy and possible negative effects of the treatment. Examinations included intraocular pressure measurement, slit lamp biomicroscopy, and direct and indirect ophthalmoscopy as possible. 200 µg of SOCS1 KIR was administered in 100 µL topically, which was a small volume that prevented reflex tear formation and possible peptide elimination. Seven of 10 patients presented with bilateral disease for a total evaluation of 17 eyes to assess peptide efficacy (Table 1). After hospitalization, ERU patients were returned to their owners, who continued peptide administration from home. The horses underwent complete physical and ophthalmic examinations at day 0, day 3, day 14, and day 42. During the ophthalmic examinations, the horses were scored for discomfort, hyperemia, and aqueous flare using a modified MacDonald-Shadduck System[35] by both the attending veterinary ophthalmologist and four additional masked veterinary ophthalmologists. Safety outcomes at each observation period included: (i) ocular irritation scores (utilizing the modified MacDonald-Shadduck scoring system-); (ii) number of new cases of ocular infections; (iii) number of horses affected with peptide-mediated damage to the eye; (iv) intraocular pressure (mmHg); and (v) ERG b-wave amplitudes to assess retinal function.\nSpecific rationale is as follows: Given the novelty of the use of topical SOCS1-mimetic peptide, the administration of peptide in this pilot study was ethically conducted in open-label fashion, without randomization, so that rescue medications could be administered, if necessary. […] A single investigator (C.P.) was aware of the drug allocations and the results of clinical evaluations. However, 4 masked veterinarians were utilized to obtain the clinical scoring obtained in Fig. 4E. Given the open enrollment utilized in this pilot study and the administration of drug by patient owners at home, confounders could not be controlled. Placebo medications were not utilized, although SOCS1 mimetic peptide was provided as compassionate use as specific owners noted symptom resumption during drug dry out period (not statistically analyzed).\nExperimental data are presented as mean ± standard error of the mean […]. All statistical analyses were performed using GraphPad Prism version 8 software (GraphPad Software, La Jolla, CA, USA). For the in vivo assessment of ERU recovery, paired students t tests were utilized. The data were deemed statistically significant if P ≤ 0.05. […]"}, "[3]": {"test_system": "experimental autoimmune encephalomyelitis (a rodent model of multiple sclerosis)", "parameters": "method as in PMID 21788442, PMID 21131060, PMID 33737712", "conditions": "peritoneal administration; cited from earlier work"}, "SOCS1-/- mice": {"test_system": "SOCS1-/- mice", "conditions": "cited from earlier work", "text": "(§1) Many of the uveal tract destructive cytokines produced by infiltrating T lymphocytes are dependent on Jak2 for either production or signal transduction[38],[46]. […] Endogenous SOCS1 binds to the activation loop of JAK2, inhibit ..."}, "[4]": {"test_system": "lupus pathologies in preclinical models", "conditions": "cited from earlier work", "text": "as §1"}, "[5]": {"test_system": "experimentally induced uveitis", "parameters": "method as in PMID 27703302, PMID 26094775", "conditions": "mice, topical application as simple eye drop; cited from earlier work"}, "[6]": {"test_system": "experimentally induced uveitis", "parameters": "method as in PMID 27703302, PMID 26094775", "conditions": "rats, topical application as simple eye drop; cited from earlier work"}, "induced uveitis": {"test_system": "induced uveitis", "conditions": "cited from earlier work"}, "[7]": {"target": "T1, pJAK2 activation loop peptide (Equus caballus)", "T1 chain": "LPQDKEYYKVKEP", "assay": "ELISA-type direct plate binding assay"}, "[8]": {"conditions": "ERU horses, topical, not reaching statistical significance"}},
  "note": "Read-outs that look alike come from different tables or passages of the source. Ends that are not written are not given here. palmitoyl‑Lys = palmitoyl-lysine",
  "data": [
    {"molecule": "DTHFRTFRSHSDYRRI [SOCS1-KIR]", "values": [
      {"measurement": "signal intensity of pJak2 (1001–1013) binding to plate bound SOCS1-KIR peptide", "setting": "[1]", "result": "semi-logarithmic decrease in the signal intensity"},
      {"measurement": "resolution of inflammatory processes coinciding with administration (number of horses)", "setting": "[2]; ERU horses other than patient 2, 4 horses also received diclofenac and/or atropine", "result": "eight of the remaining 9 horses"},
      {"measurement": "reduction in clinical scoring, masked veterinary scoring of ocular photographs", "setting": "[2]; ERU horses, by 6 weeks of topical treatment, four masked veterinarians, n = 8, statistically significant", "result": 75, "unit": "%"},
      {"measurement": "patients responsive to administration as a monotherapy", "setting": "[2]; ERU horses, topical", "result": "four of the ten patients"},
      {"measurement": "reduction in hyperemia clinical scoring", "setting": "[2]; ERU horses, topical 200 µg in 100 µl twice a day, 6-week evaluation, modified MacDonald-Shadduck score, n = 14 eyes, p < 0.01, paired t test", "result": 40, "unit": "%"},
      {"measurement": "reduction in aqueous flare", "setting": "[2]; ERU horses, topical 200 µg in 100 µl twice a day, 6 weeks, modified MacDonald-Shadduck score, n = 14, p < 0.01", "result": 50, "unit": "%"},
      {"measurement": "reduction in overall discomfort", "setting": "[2]; ERU horses, topical 200 µg in 100 µl twice a day, 6 weeks, n = 8, eyes without discomfort omitted, p < 0.05", "result": "near complete reduction"},
      {"measurement": "hypopyon", "setting": "[2]; [8]", "result": "consistent improvements"},
      {"measurement": "intraocular pressure", "setting": "[2]; [8]", "result": "consistent improvements"},
      {"measurement": "patients refractory to mimetic treatment", "setting": "[2]; ERU horses, the refractory patients had severe disease", "result": "3/10"},
      {"measurement": "Response to mimetic", "setting": "[2]; PT1: Appaloosa gelding, 21 years, severe disease, blind OS, bilateral, plus diclofenac/atropine, 9 months", "result": "+ +"},
      {"measurement": "Response to mimetic dryout period", "setting": "[2]; PT1: severe disease, plus diclofenac/atropine", "result": "yes"},
      {"measurement": "Response to mimetic", "setting": "[2]; Pt 3: Miniature gelding, 16 years, severe disease, bilateral, monotherapy, lost to followup", "result": "+ + +"},
      {"measurement": "Response to mimetic", "setting": "[2]; Pt 4: Paint mare, 16 years, moderate disease, plus atropine, 2 months", "result": "+ + +"},
      {"measurement": "Response to mimetic", "setting": "[2]; Pt 5: Appaloosa gelding, 17 years, mild disease, bilateral, monotherapy, 8 months", "result": "+ + +"},
      {"measurement": "Response to mimetic dryout period", "setting": "[2]; Pt 5: mild disease, monotherapy", "result": "yes"},
      {"measurement": "Response to mimetic", "setting": "[2]; Pt 7: Appaloosa gelding, 16 years, mild, bilateral, monotherapy, 3 months", "result": "+ + +"},
      {"measurement": "Response to mimetic dryout period", "setting": "[2]; Pt 7: mild, monotherapy", "result": "yes"},
      {"measurement": "Response to mimetic", "setting": "[2]; Pt 9: Appaloosa mare, 14 years, moderate disease, bilateral, plus diclofenac/atropine, 8 months", "result": "+ + +"},
      {"measurement": "Response to mimetic dryout period", "setting": "[2]; Pt 9: moderate disease, plus diclofenac/atropine", "result": "yes"},
      {"measurement": "drug related negative events, long-term use", "setting": "[2]; in vivo", "result": "no observed drug related negative events"},
      {"measurement": "systemic immune suppression", "setting": "[2]; in vivo", "result": "no observed systemic immune suppression"},
      {"measurement": "discomfort and inflammation when treatment was resumed (compassionate use)", "setting": "[2]; owner-noted, after return of inflammation in the peptide dry-out period, four owners, not quantitated", "result": "subsequent decreases in discomfort and inflammation"},
      {"measurement": "clinical improvement, patient 2", "setting": "[2]; severe ERU, minimal sight in one eye, SOCS1-KIR 2 mg/ml topical, inflammation persisted, euthanised", "result": "very modest clinical improvement"},
      {"measurement": "progression of experimental autoimmune encephalomyelitis", "setting": "[3]", "result": "inhibited progression of experimental autoimmune encephalomyelitis"},
      {"measurement": "perinatal lethality of SOCS1-/- mice", "setting": "SOCS1-/- mice; peritoneal administration", "result": "rescued SOCS1-/- mice from perinatal lethality"},
      {"measurement": "circulating memory T cells and Foxp3 high T lymphocytes", "setting": "SOCS1-/- mice; rodent model of SOCS1 genetic deficiency, peritoneal injection", "result": "decreased circulating memory T cells and increased Foxp3 high T lymphocytes"},
      {"measurement": "lupus pathologies", "setting": "[4]; peritoneal administration, preclinical models", "result": "reduced lupus pathologies"},
      {"measurement": "circulating memory T cells and Foxp3 high T lymphocytes", "setting": "[4]; spontaneous lupus model, peritoneal injection", "result": "decreased circulating memory T cells and increased Foxp3 high T lymphocytes"},
      {"measurement": "experimentally induced uveitis", "setting": "[5]", "result": "mitigated experimentally induced uveitis"},
      {"measurement": "experimentally induced uveitis", "setting": "[6]", "result": "mitigated experimentally induced uveitis"},
      {"measurement": "chemokines CCL2, CCL20 and CXCL9 and chemokine receptors CCR2, CCR4, CCR6 and CXCR3", "setting": "induced uveitis; induced uveitis rodent studies", "result": "decreases"},
      {"measurement": "TH1- and TH17-associated cytokines and IL-10", "setting": "induced uveitis; rodent models of uveitis, topical administration to the eye", "result": "suppresses both TH1- and TH17- associated cytokines, while promoting the production of IL-10"}
    ]},
    {"molecule": "{palmitoyl‑Lys}-DTHFRTFRSHSDYRRI", "note": "[SOCS1-KIR mimetic peptide]", "values": [
      {"measurement": "Kd", "setting": "[7]", "result": 1700, "unit": "nM"}
    ]}
  ]
}
